How the values were obtained:
Format in all cases: in vivo
[1] = test system: Alopecurus myosuroides (ALOMY); test: Pre-emergence herbicidal activity (B1); conditions: Test 1b; pre-emergence application; rate 1000 g/ha; evaluated after 13 days; score 0-5
Experimental: (§1) Seeds of a variety of test species were sown in standard soil in pots: Triticum aestivium (TRZAW), Avena fatua (AVEFA), Alopecurus myosuroides (ALOMY), Echinochloa crus-galli (ECHCG), Lolium perenne (LOLPE), Zea Mays (ZEAMX), Abutilon theophrasti (ABUTH), Amaranthus retroflexus (AMARE) and Setaria faberi (SETFA). […] The test plants were then grown in a glasshouse under controlled conditions (at 24/16° C., day/night; 14 hours light; 65% humidity) and watered twice daily. After 13 days, the test was evaluated (5=total damage to plant; 0=no damage to plant).

[2] = test system: Avena fatua (AVEFA); test: Pre-emergence herbicidal activity (B1); conditions: Test 1b; pre-emergence application; rate 1000 g/ha; evaluated after 13 days; score 0-5
Experimental: as §1

[3] = test system: Echinochloa crus-galli (ECHCG); test: Pre-emergence herbicidal activity (B1); conditions: Test 1b; pre-emergence application; rate 1000 g/ha; evaluated after 13 days; score 0-5
Experimental: as §1

[4] = test system: Lolium perenne (LOLPE); test: Pre-emergence herbicidal activity (B1); conditions: Test 1b; pre-emergence application; rate 1000 g/ha; evaluated after 13 days; score 0-5
Experimental: as §1

[5] = test system: Setaria faberi (SETFA); test: Pre-emergence herbicidal activity (B1); conditions: Test 1b; pre-emergence application; rate 1000 g/ha; evaluated after 13 days; score 0-5
Experimental: as §1

[6] = test system: Triticum aestivium (TRZAW); test: Pre-emergence herbicidal activity (B1); conditions: Test 1b; pre-emergence application; rate 1000 g/ha; evaluated after 13 days; score 0-5
Experimental: as §1

[7] = test system: Alopecurus myosuroides (ALOMY); test: Post-emergence herbicidal activity (B2); conditions: Test B2b; post-emergence application; rate 1000 g/ha; evaluated after 13 days; score 0-5
Experimental: as §1

[8] = test system: Avena fatua (AVEFA); test: Post-emergence herbicidal activity (B2); conditions: Test B2b; post-emergence application; rate 1000 g/ha; evaluated after 13 days; score 0-5
Experimental: as §1

[9] = test system: Echinochloa crus-galli (ECHCG); test: Post-emergence herbicidal activity (B2); conditions: Test B2b; post-emergence application; rate 1000 g/ha; evaluated after 13 days; score 0-5
Experimental: as §1

[10] = test system: Lolium perenne (LOLPE); test: Post-emergence herbicidal activity (B2); conditions: Test B2b; post-emergence application; rate 1000 g/ha; evaluated after 13 days; score 0-5
Experimental: as §1

[11] = test system: Setaria faberi (SETFA); test: Post-emergence herbicidal activity (B2); conditions: Test B2b; post-emergence application; rate 1000 g/ha; evaluated after 13 days; score 0-5
Experimental: as §1

[12] = test system: Triticum aestivium (TRZAW); test: Post-emergence herbicidal activity (B2); conditions: Test B2b; post-emergence application; rate 1000 g/ha; evaluated after 13 days; score 0-5
Experimental: as §1

OCNc1ncc(-c2cncc(F)c2)nc1C(F)(F)F [Compound G12, 2-hydroxymethylamino-3-trifluoromethyl-5-(5-fluoropyrid-3-yl)pyrazine]
1: damage to plant, AVEFA [2]
0: damage to plant, ALOMY [1] | damage to plant, LOLPE [4] | damage to plant, TRAZW [6] | damage to plant, ALOMY [7] | damage to plant, LOLPE [10] | damage to plant, TRAZW [12]
2: damage to plant, ECHCG [9]
5: damage to plant, SETFA [5] | damage to plant, AVEFA [8]
3: damage to plant, ECHCG [3] | damage to plant, SETFA [11]

Cc1nc(-c2cncc(F)c2)cnc1N(C)C [Compound G13, 2-dimethylamino-3-methyl-5-(5-fluoropyrid-3-yl)pyrazine]
1: damage to plant, SETFA [5] | damage to plant, AVEFA [8] | damage to plant, ECHCG [9]
0: damage to plant, ALOMY [1] | damage to plant, AVEFA [2] | damage to plant, ECHCG [3] | damage to plant, LOLPE [4] | damage to plant, TRAZW [6] | damage to plant, ALOMY [7] | damage to plant, LOLPE [10] | damage to plant, TRAZW [12]
3: damage to plant, SETFA [11]

C=C(C)c1nc(-c2cncc(F)c2)cnc1N [Compound G14, 5-(5-fluoro-3-pyridyl)-3-isopropenyl-pyrazin-2-amine]
1: damage to plant, ECHCG [3] | damage to plant, AVEFA [8] | damage to plant, ECHCG [9] | damage to plant, LOLPE [10]
2: damage to plant, SETFA [5]
4: damage to plant, SETFA [11]
0: damage to plant, ALOMY [1] | damage to plant, AVEFA [2] | damage to plant, LOLPE [4] | damage to plant, TRAZW [6] | damage to plant, ALOMY [7] | damage to plant, TRAZW [12]

CC(C)c1nc(-c2cncc(F)c2)cnc1N [Compound G15, 2-amino-3-(prop-2-yl)-5-(5-fluoropyrid-3-yl)pyrazine]
1: damage to plant, ECHCG [9]
0: damage to plant, ALOMY [1] | damage to plant, AVEFA [2] | damage to plant, ECHCG [3] | damage to plant, SETFA [5] | damage to plant, TRAZW [6] | damage to plant, ALOMY [7] | damage to plant, AVEFA [8] | damage to plant, LOLPE [10] | damage to plant, TRAZW [12]
4: damage to plant, SETFA [11]
2: damage to plant, LOLPE [4]

CNc1ncc(-c2cncc(F)c2)nc1C [Compound G17, 2-methylamino-3-methyl-5-(5-fluoropyrid-3-yl)pyrazine]
0: damage to plant, ALOMY [1] | damage to plant, AVEFA [2] | damage to plant, ECHCG [3] | damage to plant, LOLPE [4] | damage to plant, SETFA [5] | damage to plant, TRAZW [6] | damage to plant, ALOMY [7] | damage to plant, AVEFA [8] | damage to plant, LOLPE [10] | damage to plant, TRAZW [12]
1: damage to plant, ECHCG [9] | damage to plant, SETFA [11]

C=Cc1nc(-c2cncc(F)c2)cnc1N [Compound G18]
0: damage to plant, ALOMY [1] | damage to plant, AVEFA [2] | damage to plant, ECHCG [3] | damage to plant, LOLPE [4] | damage to plant, SETFA [5] | damage to plant, TRAZW [6] | damage to plant, ALOMY [7] | damage to plant, LOLPE [10] | damage to plant, TRAZW [12]
1: damage to plant, AVEFA [8] | damage to plant, ECHCG [9] | damage to plant, SETFA [11]

CCc1nc(-c2cncc(F)c2)cnc1N [Compound G19]
1: damage to plant, ECHCG [3] | damage to plant, LOLPE [4] | damage to plant, AVEFA [8]
3: damage to plant, SETFA [11]
4: damage to plant, SETFA [5]
0: damage to plant, ALOMY [1] | damage to plant, AVEFA [2] | damage to plant, TRAZW [6] | damage to plant, ALOMY [7] | damage to plant, LOLPE [10] | damage to plant, TRAZW [12]
2: damage to plant, ECHCG [9]

C[Si](C)(C)C#Cc1nc(-c2cncc(F)c2)cnc1N [Compound G20]
1: damage to plant, AVEFA [8] | damage to plant, TRAZW [12]
0: damage to plant, ALOMY [1] | damage to plant, AVEFA [2] | damage to plant, ECHCG [3] | damage to plant, LOLPE [4] | damage to plant, SETFA [5] | damage to plant, TRAZW [6] | damage to plant, ALOMY [7] | damage to plant, ECHCG [9] | damage to plant, LOLPE [10] | damage to plant, SETFA [11]

CCCNc1ncc(-c2cncc(F)c2)nc1C(F)(F)F [Compound G23]
2: damage to plant, ECHCG [3]
3: damage to plant, SETFA [5]
4: damage to plant, ECHCG [9] | damage to plant, SETFA [11]
0: damage to plant, AVEFA [2] | damage to plant, TRAZW [6] | damage to plant, ALOMY [7] | damage to plant, TRAZW [12]
1: damage to plant, ALOMY [1] | damage to plant, LOLPE [4] | damage to plant, AVEFA [8] | damage to plant, LOLPE [10]
